In US6562849B1, “Amine derivative compounds” (Sankyo Company, Limited, priority 1999, dated 2003):
Structures can show the parent of a compound that is named as a salt.

Tested on: KK mice (age 4-5 months) with diabetes
Experiment: Blood sugar lowering effect in KK mice with diabetes
Format: in vivo
Settings: Mus musculus, po, 72 h, powder diet containing 0.01% of the test compound for 3 days, plasma glucose vs control group, groups of 4 mice, read-out: Blood sugar decrease rate (%)
Text: [Test Example] Blood Sugar Lowering Effect
Blood samples were collected from the caudal vein of KK mice (age 4-5 months) with diabetes followed by measurement of their blood sugar levels. Next, after assigning the mice to groups (of 4 mice each) so that the mean blood sugar levels of each group were the same, mouse laboratory powder diet (F-1, Funabashi Farms), prepared so as to contain 0.01% of the test compound, was given to the mice for 3 days. The groups of mice that were given test compound were designated as the drug dose groups. It should be noted that a group that was given laboratory diet not containing the test compound was designated as the control group. Blood samples were collected from the caudal vein of the mice 3 days later and the glucose concentration of the plasma obtained by centrifugal separation was measured with a glucose analyzer (Glucoloader, A & T Corp.). The mean decrease of blood sugar rate (%) was determined according to the following equation.
Blood sugar decrease rate (%)=(mean blood sugar value of control group−mean blood sugar value […] of drug dose group)×100/(blood sugar value of control group)

SMILES: Cn1c(COc2ccc(CC3SC(=O)NC3=O)cc2)nc2ccc(Oc3ccc(CCNC(=O)NC45CC6CC(CC(C6)C4)C5)cc3)cc21 (centres unmarked) [Example 33, 1-(Adamant-1-yl)-3-[2-(4-[2-[4-(2,4-dioxothiazolidin-5-ylmethyl)phenoxymethyl]-1-methyl-1H-benzimidazol-6-yloxy]phenyl)ethyl]urea dihydrochloride]
- inhibition in vivo at 0.01 % in diet: 30.4%

SMILES: Cn1c(COc2ccc(CC3SC(=O)NC3=O)cc2)nc2ccc(Oc3ccc(NC(=O)NC45CC6CC(CC(C6)C4)C5)cc3)cc21 (centres unmarked) [Example 14, 1-(Adamant-1-yl)-3-(4-[2-[4-(2,4-dioxothiazolidin-5-ylmethyl)phenoxymethyl]-1-methyl-1H-benzimidazol-6-yloxy]phenyl)urea]
- inhibition in vivo at 0.01 % in diet: 63.2%
